# Assay results: patent publication US20260022098A1, “BULLEYACONITINE A DERIVATIVE WITH ANALGESIC ACTIVITY, AND PREPARATION METHOD AND APPLICATION THEREOF” (priority 2023, published 2026)
# Like-named read-outs stand apart in the source and are kept apart here.
# Key:
# Kunming mice [1] = experiment: Analgesic activity by acetic acid-induced writhing method (writhing inhibition rate, ED50); assay type: in vivo; settings: mice, subcutaneous; for ED50: Probit regression; for inhibition in vivo at 0.05 mg/kg / inhibition in vivo at 0.5 mg/kg: read-out: Analgesia rate (%) ± SEM
# Method in brief: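 Kunming mice (22±2 g, 1:1 sex, 12 h fasted, 10/group) got compound s.c. (dissolved 1:1 molar with 0.1 mol/L HCl, diluted in saline); 0.7% acetic acid i.p. 15 min later, writhes counted over 15 min. Inhibition rate vs saline blank; ED50 by Probit regression over ≥5 doses.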
# [2] = Acute toxicity / median lethal dose (LD50) determination, subcutaneous injection; assay type: in vivo, mice; set-up: key to Acute toxicity: if death occurred, (+) represented as positive; if no death occurred, (−) represented as negative; settings: both sexes, Kunming, mouse, in vivo, sc; mice, subcutaneous, survival within 24 h, Probit regression; >X = no death or toxic symptoms at X mg/kg
# Method in brief: (§1)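 Kunming mice (22±2 g, 1:1 male:female, fasted 12 h), 10 per group, given compound subcutaneously at 0.1 mL/10 g in saline after 1:1 molar dissolution in 0.1 mol/L HCl. At least 5 proportional dose groups set from a 20 mg/kg pilot; 24 h survival, LD50 by Probit regression.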
# Kunming mice [3] = experiment: as above; assay type: in vivo; set-up: key to Acute toxicity: if death occurred, (+) represented as positive; if no death occurred, (−) represented as negative; settings: for Acute toxicity: mice administered 20 mg/kg subcutaneously, presence of death within 24 h
# Method in brief: as §1
# Kunming mice [4] = experiment: Calculation of therapeutic index (TI = LD50/ED50); assay type: in vivo
# Experimental: (3) Calculation of Therapeutic Index (TI)
# The therapeutic index of each compound was calculated based on the median effective dose and the median lethal dose, which were specifically as follows: therapeutic index (TI)=median lethal dose (LD50)/median effective dose (ED50).
# [5] = test system: LPS-induced RAW 264.7 cells; experiment: Griess assay, inhibition of NO release in LPS-induced RAW 264.7 cells; assay type: cell-based; settings: Griess method, compound at 30 M (so in the source), 22 h
# Experimental: (§2) The effect of the compound to be tested on viability of RAW 264.7 cells at a concentration of […] was assessed through MTT assay (Methylthiazolyldiphenyl-tetrazolium bromide assay), and the inhibition on NO release in the inflammatory response of LPS-induced RAW 264.7 cells at 30 µM was determined through Griess method. Specific methods were described as follows.
# RAW264.7 cells beyond third passage were added to a culture medium and gently pipetted to detach, forming a cell suspension. 10 μL of the cell suspension was applied onto a hemocytometer slide for counting, and cells were seeded into a 96-well plate at a density of 3×10^4 cells per well with 100 μL of the cell suspension per well. After incubated at 37° C. with […] for 24 h, supernatant was removed. The blank group received 100 μL of DMSO (1/1000 dilution) per well, a LPS (lipopolysaccharide) group received 100 μL of DMSO (1/1000 dilution) per well, and the experimental groups received 100 μL of the test samples per well. The LPS group received 1 μg/ml of LPS by […] per well, and the experimental groups received […] of LPS by 3 μg per well. After 22 h, 50 μL of supernatant was transferred into another 96-well plate, added with Griess Reagent I in a NO assay kit by 50 μL per well, then added with Griess Reagent II by 50 μL per well, and subjected to an absorbance test at 562 nm. Nitric oxide (NO) concentration was calculated based on a standard curve, which was specifically as follows: NO inhibition rate (%)=(ODLPS−ODTest)/(ODLPS−ODBlank)×100).
# RAW 264.7 cells = experiment: MTT assay, viability of RAW 264.7 cells; assay type: cell-based; settings: compound diluted to 30 mol/L (so in the source), 12 h
# Experimental: as §2
# An MTT solution (5 mg/mL) was prepared with a PBS buffer, filter-sterilized through a 0.22 μm filter membrane, and stored protected from light at low temperature. Each compound was dissolved in DMSO to prepare a 50 mmol/L stock solution, and stored from light at low (frozen) temperature. The stock solution was diluted to 30 mol/L with DMEM (Dulbecco's modified Eagle's medium) containing 10% FBS (fetal bovine serum). RAW264.7 cells beyond third passage were added to a culture medium and gently pipetted to detach, forming a cell suspension. 10 μL of the cell suspension was applied onto a hemocytometer slide for counting, and cells were seeded into 96-well plates at a density of 6×10^3 cells per well with 100 μL of the cell suspension per well. After incubated at 37° C. with 5% CO2 for 24 h, supernatant was removed. A zero-adjustment group (CO group) received 100 μL of medium per well, the blank group (CK group) received 100 μL of DMSO (1/1000 dilution) per well, and the experimental groups received 100 μL of the test samples per well. After 12 h, supernatant was removed, and […] of MTT solution was added into each well at 120 μL per well. After incubated in COz at a constant temperature for 4 h, supernatant was removed, and DMSO was added into each well by 150 μL per well. The mixture was shaken at 50 r/min for 10 min and subjected to an absorbance test at 492 nm. Relative cell viability (x) was calculated through a formula as follows: relative cell viability (%)=(ODTest−ODCO)/(ODCK−ODCO)×100%.
# Kunming mice [6] = settings: reported value used as preliminary screening concentration; cited from earlier work
# [7] = Mus musculus, sc, acetic acid-induced writhing, read-out: ED50
# [8] = Mus musculus, sc, dosing concentration 0.05 mg/kg, acetic acid-induced writhing
# [9] = Mus musculus, sc, dosing concentration 0.5 mg/kg, acetic acid-induced writhing
Compound,ED50 (Kunming mice [1]; [7]) [mg/kg],inhibition in vivo at 0.05 mg/kg (Kunming mice [1]; [8]) [%],LD50 [2] [mg/kg],Acute toxicity (Kunming mice [3]),TI (Kunming mice [4]),Inflammatory NO inhibition rate [5] [%],RAW cell viability (RAW 264.7 cells),inhibition in vivo at 0.5 mg/kg (Kunming mice [1]; [9]) [%],ED50 (Kunming mice [1]; acetic acid-induced writhing) [mg/kg],"Analgesia rate (%) ± SEM (Kunming mice [1]; dosing concentration 0.05 mg/kg, acetic acid-induced writhing) [%]",Analgesia rate: unable to test owing to significant toxicity or death in mice (Kunming mice [1]; dosing concentration 0.5 mg/kg),"LD50 (Kunming mice [3]; mice, subcutaneous, survival within 24 h, Probit regression, >X = no death or toxic symptoms at X mg/kg) [mg/kg]",reported median effective dose (ED50) (Kunming mice [6]) [mg/kg]
CCO[C@]12C[C@H](OC)[C@@]3(OC(=O)c4ccco4)CC(C1[C@H]3OC(=O)c1ccco1)[C@]13C4[C@@H](OC)C2[C@H]1N(CC)C[C@]4(COC)CC[C@@H]3OC (stereo partly drawn) [Compound 6],0.069,59.8 ± 2.3,> 600,−,>8695.7,22 ± 4.41,92.23 ± 1.29 ns %,,,,,,
CCO[C@]12C[C@H](OC)[C@@]3(OC(=O)c4ccco4)CC(C1[C@H]3OC(=O)c1ccc(OC)cc1)[C@]13C4[C@@H](OC)C2[C@H]1N(CC)C[C@]4(COC)CC[C@@H]3OC (stereo partly drawn) [Compound 15],0.073,57.6 ± 1.3,56.4,−,773,5 ± 2.17,104.18 ± 6.16 ns %,,,,,,
CCO[C@]12C[C@H](OC)[C@@]3(OC(=O)c4cccnc4)CC(C1[C@H]3OC(=O)c1cccnc1)[C@]13C4[C@@H](OC)C2[C@H]1N(CC)C[C@]4(COC)CC[C@@H]3OC (stereo partly drawn) [Compound 27],0.033,62 ± 1.6,> 600,−,>18181.8,7 ± 2.16,87.20 ± 7.66 ^ %,,,,,,
CCN1C[C@]2(COC)CC[C@H](OC)[C@@]34C5C[C@]6(OC(=O)c7cccnc7)[C@@H](OC)C[C@@](OC(C)=O)(C5[C@H]6OC(=O)c5ccc(OC)cc5)C([C@H](OC)C23)[C@@H]14 (stereo partly drawn) [Compound 29],1.48,47.9 ± 1.8,41.2,−,27.9,20 ± 1.12,116.43 ± 15.6 ^ %,65.6 ± 1.3,,,,,
CCO[C@]12C[C@H](OC)[C@@]3(OC(=O)c4ccc([N+](=O)[O-])cc4)CC(C1[C@H]3OC(=O)c1ccc(OC)cc1)[C@]13C4[C@@H](OC)C2[C@H]1N(CC)C[C@]4(COC)CC[C@@H]3OC (stereo partly drawn) [Compound 39],0.195,51.1 ± 1.4,> 100,−,>512.8,,6.97 ± 0.93 %,,,,,,
CCO[C@]12C[C@H](OC)[C@@]3(OC(=O)c4ccccc4)CC(C1[C@H]3OC(=O)c1ccccc1)[C@]13C4[C@@H](OC)C2[C@H]1N(CC)C[C@]4(COC)CC[C@@H]3OC (stereo partly drawn) [Compound 52],0.479,47 ± 1.8,> 100,−,>208.8,,7.00 ± 0.98 %,64.2 ± 1.3,,,,,
CCO[C@]12C[C@H](OC)[C@@]3(OC(=O)c4ccc(F)cc4)CC(C1[C@H]3OC(=O)c1ccc(OC)cc1)[C@]13C4[C@@H](OC)C2[C@H]1N(CC)C[C@]4(COC)CC[C@@H]3OC (stereo partly drawn) [Compound 60],0.122,50 ± 1.4,> 100,−,>819.7,2 ± 2.82,96.09 ± 7.95 ns %,,,,,,
CCO[C@]12C[C@H](OC)[C@@]3(OC(=O)c4ccccc4F)CC(C1[C@H]3OC(=O)c1ccccc1F)[C@]13C4[C@@H](OC)C2[C@H]1N(CC)C[C@]4(COC)CC[C@@H]3OC (stereo partly drawn) [Compound 69],0.106,40.3 ± 0.7,> 100,−,>943.4,40 ± 3.46,95.11 ± 5.66 ns %,60.6 ± 1.9,,,,,
CCO[C@]12C[C@H](OC)[C@@]3(OC(=O)c4ccc(Cl)cc4)CC(C1[C@H]3OC(=O)c1ccc(OC)cc1)[C@]13C4[C@@H](OC)C2[C@H]1N(CC)C[C@]4(COC)CC[C@@H]3OC (stereo partly drawn) [Compound 83],0.146,47 ± 0.9,76.6,−,524.9,50 ± 4.52,85.21 ± 7.83 ^ %,70.8 ± 1.2,,,,,
CCO[C@]12C[C@H](OC)[C@@]3(OC(=O)CC(C)(C)C)CC(C1[C@H]3OC(=O)CC(C)(C)C)[C@]13C4[C@@H](OC)C2[C@H]1N(CC)C[C@]4(COC)CC[C@@H]3OC (stereo partly drawn) [Compound 88],0.161,47.7 ± 0.6,> 100,−,>621.1,,74.05 ± 10.06 %,65.07 ± 0.6,,,,,
Bulleyaconitine A [reference compound],,,,+,19.2,13 ± 6.84,85.80 ± 7.31 ^ %,,0.048,54.80 ± 1.8,−^a,0.92,0.05
